Patent US8835438B2, “Method of treating memory/learning dysfunctions caused by schizophrenia with lurasidone” (Sumitomo Dainippon Pharma Co., Ltd., priority 2004, dated 2014)
Entries after “also recorded” stand apart in the source; their conditions may differ. Marks after values point to notes of the source that are not given here.

tested on: MK-801-induced memory/learning dysfunctions; experiment: Step-through passive avoidance response test, MK-801-induced memory/learning dysfunctions; format: in vivo, Wistar male rats; conditions: MK-801 0.05 mg/kg s.c. alone, administered prior to training session only
Description: Wistar male rats (7 weeks old) were used. […] Serotonin 5-HT 1A receptor antagonist WAY-100635 or noradrenaline a2 receptor antagonist 1-PP was dissolved in a physiological saline solution (Otsuka Pharmaceutical Co., Ltd.) and used as a test compound. As an NMDA type receptor antagonist, MK-801 hydrogen maleate (SIGMA-ALDRICH M-107) was dissolved in a physiological saline solution (Otsuka Pharmaceutical Co., Ltd.). […] For the evaluation of state-dependency of MC-801, MK-801 was administered before the training session, and a physiological saline solution was administered before the testing session instead. The dosing value thereof was 5 ml/kg for each.
The step-through type passive avoidance response test was carried out in the following manners with the use of an apparatus consisting of a light-dark box, a slide door dividing the light-dark box and a shock generator (manufactured by O'hara & Co., Ltd., PA-2030A, PA-3001A) as an experimental apparatus. Namely, on Day 1 of the experiment, after a test compound and MK-801 were administered, the rats were put into the light box of the experimental apparatus where the back of each rat was directed to the dark box. Then, 10 seconds later, a slide door set at the border between the dark box and the light box was opened. Due to the habits of the rats, once the rats entered into the dark box, the slide door was quickly closed. At three seconds after entering into the dark box, an electroconvulsive shock ([…], for 3 seconds) was given to the rats. The period between the time just after the slide door was opened and the time at which the rats entered into the dark box was measured as a step-through latency. […] On Day 2 of the experiment, the testing session was carried out about 24 hours after the training session. Thirty minutes prior to the testing session, MK-801 or a vehicle thereof, i.e., a physiological saline solution, was subcutaneously administered to the rats. The procedures of the testing session were carried out in the same manner to the training session except that no electroconvulsive shock was given. The step-through latency at the testing session was measured up to 300 seconds, and the step-through latency over 300 seconds was regarded as 300 seconds. […] The statistical analysis of the % of animals avoiding was done by x^2 test with Bonferroni's correction. The animals were used in a group of 10 to 25 animals per group, and the data was expressed by percentage.

SMILES | % of animals avoiding, group treated with MK-801
C[C@]12N[C@H](Cc3ccccc31)c1ccccc12 [MK-801] | 0%

same assay, conditions: MK-801 administered in both training and testing sessions

SMILES | drug efficacy on memory dysfunction (in words)
Cc1nc2n(c(=O)c1CCN1CCC(c3noc4cc(F)ccc34)CC1)CCCC2 [Risperidone, risperidone] | memory/learning improving efficacy is recognized
O=C(CCCN1CCC(O)(c2ccc(Cl)cc2)CC1)c1ccc(F)cc1 [Haloperidol] | no drug efficacy was observed
OCCOCCN1CCN(C2=Nc3ccccc3Sc3ccccc32)CC1 [Quetiapine, quetiapine] | memory/learning improving efficacy is recognized; also recorded: a significant improving activity was observed
O=C1[C@@H]2[C@H]3CC[C@H](C3)[C@@H]2C(=O)N1C[C@@H]1CCCC[C@H]1CN1CCN(c2nsc3ccccc23)CC1 [Lurasidone, lurasidone] | memory/learning improving efficacy is recognized; also recorded: a significant improving activity was observed
O=C1CCc2ccc(OCCCCN3CCN(c4cccc(Cl)c4Cl)CC3)cc2N1 [Aripiprazole, aripiprazole] | no drug efficacy was observed

same assay, conditions: MK-801 administered in both training and testing sessions; dihydrochloride

SMILES | drug efficacy on memory dysfunction (in words)
Cl.Cl.c1cnc(N2CCNCC2)nc1 [1-PP, 1-(2-pyrimidyl)piperazine dihydrochloride] | memory/learning improving efficacy is recognized; also recorded: a significant improving activity was observed

same assay, conditions: MK-801 administered in both training and testing sessions; listed as WAY-100635

SMILES | drug efficacy on memory dysfunction (in words)
COc1ccccc1N1CCN(CCN(C(=O)C2CCCCC2)c2ccccn2)CC1 [WAY-1000635] | a significant improving activity was observed

same assay, conditions: MK-801 administered in both training and testing sessions; listed as serotonin 5-HT 1A receptor antagonist

SMILES | drug efficacy on memory dysfunction (in words)
COc1ccccc1N1CCN(CCN(C(=O)C2CCCCC2)c2ccccn2)CC1 [WAY-1000635] | memory/learning improving efficacy is recognized

same assay, conditions: MK-801 administered only in the training session

SMILES | drug efficacy on memory dysfunction (in words)
Cl.Cl.c1cnc(N2CCNCC2)nc1 [1-PP, 1-(2-pyrimidyl)piperazine dihydrochloride] | no drug efficacy
O=C1[C@@H]2[C@H]3CC[C@H](C3)[C@@H]2C(=O)N1C[C@@H]1CCCC[C@H]1CN1CCN(c2nsc3ccccc23)CC1 [Lurasidone, lurasidone] | no drug efficacy

same assay, conditions: MK-801 before training session and saline before testing session, compared with MK-801 in both sessions

SMILES | step-through latency (in words)
C[C@]12N[C@H](Cc3ccccc31)c1ccccc12 [MK-801] | nearly equal decrease in the step-through latency

same assay, conditions: MK-801 prior to both training and testing sessions; MK-801 + drug 0.1 mg/kg p.o.

SMILES | % of animals avoiding
Cc1nc2n(c(=O)c1CCN1CCC(c3noc4cc(F)ccc34)CC1)CCCC2 [Risperidone, risperidone] | 20%
O=C(CCCN1CCC(O)(c2ccc(Cl)cc2)CC1)c1ccc(F)cc1 [Haloperidol] | 0%

same assay, conditions: MK-801 prior to both training and testing sessions; MK-801 + drug 0.3 mg/kg p.o.

SMILES | % of animals avoiding
Cc1nc2n(c(=O)c1CCN1CCC(c3noc4cc(F)ccc34)CC1)CCCC2 [Risperidone, risperidone] | 20%
O=C(CCCN1CCC(O)(c2ccc(Cl)cc2)CC1)c1ccc(F)cc1 [Haloperidol] | 5%
OCCOCCN1CCN(C2=Nc3ccccc3Sc3ccccc32)CC1 [Quetiapine, quetiapine] | 10%
CN1CCN(C2=Nc3cc(Cl)ccc3Nc3ccccc32)CC1 [Clozapine, clozapine] | 44* %
O=C1[C@@H]2[C@H]3CC[C@H](C3)[C@@H]2C(=O)N1C[C@@H]1CCCC[C@H]1CN1CCN(c2nsc3ccccc23)CC1 [Lurasidone, lurasidone] | 40* %
COc1ccccc1N1CCN(CCN(C(=O)C2CCCCC2)c2ccccn2)CC1 [WAY-1000635] | 30%
Cc1cc2c(s1)Nc1ccccc1N=C2N1CCN(C)CC1 [Olanzapine, olanzapine] | 15%

same assay, conditions: MK-801 prior to both training and testing sessions; MK-801 + drug 1 mg/kg p.o.

SMILES | % of animals avoiding
Cc1nc2n(c(=O)c1CCN1CCC(c3noc4cc(F)ccc34)CC1)CCCC2 [Risperidone, risperidone] | 28%
O=C(CCCN1CCC(O)(c2ccc(Cl)cc2)CC1)c1ccc(F)cc1 [Haloperidol] | 15%
OCCOCCN1CCN(C2=Nc3ccccc3Sc3ccccc32)CC1 [Quetiapine, quetiapine] | 20%
CN1CCN(C2=Nc3cc(Cl)ccc3Nc3ccccc32)CC1 [Clozapine, clozapine] | 36* %
Cl.Cl.c1cnc(N2CCNCC2)nc1 [1-PP, 1-(2-pyrimidyl)piperazine dihydrochloride] | 47* %
O=C1[C@@H]2[C@H]3CC[C@H](C3)[C@@H]2C(=O)N1C[C@@H]1CCCC[C@H]1CN1CCN(c2nsc3ccccc23)CC1 [Lurasidone, lurasidone] | 35* %
COc1ccccc1N1CCN(CCN(C(=O)C2CCCCC2)c2ccccn2)CC1 [WAY-1000635] | 40* %
Cc1cc2c(s1)Nc1ccccc1N=C2N1CCN(C)CC1 [Olanzapine, olanzapine] | 20%
O=C1CCc2ccc(OCCCCN3CCN(c4cccc(Cl)c4Cl)CC3)cc2N1 [Aripiprazole, aripiprazole] | 16%

same assay, conditions: MK-801 prior to both training and testing sessions; MK-801 + drug 3 mg/kg p.o.

SMILES | % of animals avoiding
Cc1nc2n(c(=O)c1CCN1CCC(c3noc4cc(F)ccc34)CC1)CCCC2 [Risperidone, risperidone] | 10%
O=C(CCCN1CCC(O)(c2ccc(Cl)cc2)CC1)c1ccc(F)cc1 [Haloperidol] | 10%
OCCOCCN1CCN(C2=Nc3ccccc3Sc3ccccc32)CC1 [Quetiapine, quetiapine] | 30%
CN1CCN(C2=Nc3cc(Cl)ccc3Nc3ccccc32)CC1 [Clozapine, clozapine] | 20%
Cl.Cl.c1cnc(N2CCNCC2)nc1 [1-PP, 1-(2-pyrimidyl)piperazine dihydrochloride] | 67* %
O=C1[C@@H]2[C@H]3CC[C@H](C3)[C@@H]2C(=O)N1C[C@@H]1CCCC[C@H]1CN1CCN(c2nsc3ccccc23)CC1 [Lurasidone, lurasidone] | 75* %
COc1ccccc1N1CCN(CCN(C(=O)C2CCCCC2)c2ccccn2)CC1 [WAY-1000635] | 30%
Cc1cc2c(s1)Nc1ccccc1N=C2N1CCN(C)CC1 [Olanzapine, olanzapine] | 20%
O=C1CCc2ccc(OCCCCN3CCN(c4cccc(Cl)c4Cl)CC3)cc2N1 [Aripiprazole, aripiprazole] | 16%

same assay, conditions: MK-801 prior to both training and testing sessions; MK-801 + drug 10 mg/kg p.o.

SMILES | % of animals avoiding
OCCOCCN1CCN(C2=Nc3ccccc3Sc3ccccc32)CC1 [Quetiapine, quetiapine] | 50* %
CN1CCN(C2=Nc3cc(Cl)ccc3Nc3ccccc32)CC1 [Clozapine, clozapine] | 10%
O=C1[C@@H]2[C@H]3CC[C@H](C3)[C@@H]2C(=O)N1C[C@@H]1CCCC[C@H]1CN1CCN(c2nsc3ccccc23)CC1 [Lurasidone, lurasidone] | 70* %
Cc1cc2c(s1)Nc1ccccc1N=C2N1CCN(C)CC1 [Olanzapine, olanzapine] | 10%

same assay, conditions: MK-801 prior to training session only; MK-801 + drug 0.3 mg/kg p.o.

SMILES | % of animals avoiding
O=C1[C@@H]2[C@H]3CC[C@H](C3)[C@@H]2C(=O)N1C[C@@H]1CCCC[C@H]1CN1CCN(c2nsc3ccccc23)CC1 [Lurasidone, lurasidone] | 20%

same assay, conditions: MK-801 prior to training session only; MK-801 + drug 1 mg/kg p.o.

SMILES | % of animals avoiding
O=C1[C@@H]2[C@H]3CC[C@H](C3)[C@@H]2C(=O)N1C[C@@H]1CCCC[C@H]1CN1CCN(c2nsc3ccccc23)CC1 [Lurasidone, lurasidone] | 20%

same assay, conditions: MK-801 prior to training session only; MK-801 + drug 3 mg/kg p.o.

SMILES | % of animals avoiding
Cl.Cl.c1cnc(N2CCNCC2)nc1 [1-PP, 1-(2-pyrimidyl)piperazine dihydrochloride] | 8%
O=C1[C@@H]2[C@H]3CC[C@H](C3)[C@@H]2C(=O)N1C[C@@H]1CCCC[C@H]1CN1CCN(c2nsc3ccccc23)CC1 [Lurasidone, lurasidone] | 30%

same assay, conditions: MK-801 prior to training session only; MK-801 + drug 10 mg/kg p.o.

SMILES | % of animals avoiding
O=C1[C@@H]2[C@H]3CC[C@H](C3)[C@@H]2C(=O)N1C[C@@H]1CCCC[C@H]1CN1CCN(c2nsc3ccccc23)CC1 [Lurasidone, lurasidone] | 20%

tested on: memory/learning dysfunctions in the passive avoidance response; experiment: Passive avoidance response test, drug administered alone without MK-801; format: in vivo, Wistar male rats; conditions: drug alone without MK-801, passive avoidance response, rats
Description: Then, 10 seconds later, a slide door set at the border between the dark box and the light box was opened. Due to the habits of the rats, once the rats entered into the dark box, the slide door was quickly closed. At three seconds after entering into the dark box, an electroconvulsive shock ([…], for 3 seconds) was given to the rats. The period between the time just after the slide door was opened and the time at which the rats entered into the dark box was measured as a step-through latency. […] On Day 2 of the experiment, the testing session was carried out about 24 hours after the training session. […] The procedures of the testing session were carried out in the same manner to the training session except that no electroconvulsive shock was given. The step-through latency at the testing session was measured up to 300 seconds, and the step-through latency over 300 seconds was regarded as 300 seconds. […] The statistical analysis of the % of animals avoiding was done by x^2 test with Bonferroni's correction. The animals were used in a group of 10 to 25 animals per group, and the data was expressed by percentage.

SMILES | Minimum dose to induce memory dysfunction by single application
Cc1nc2n(c(=O)c1CCN1CCC(c3noc4cc(F)ccc34)CC1)CCCC2 [Risperidone, risperidone] | 3 mg/kg, p.o
O=C(CCCN1CCC(O)(c2ccc(Cl)cc2)CC1)c1ccc(F)cc1 [Haloperidol] | 10 mg/kg, p.o
OCCOCCN1CCN(C2=Nc3ccccc3Sc3ccccc32)CC1 [Quetiapine, quetiapine] | 30 mg/kg, p.o
CN1CCN(C2=Nc3cc(Cl)ccc3Nc3ccccc32)CC1 [Clozapine, clozapine] | 10 mg/kg, p.o
O=C1[C@@H]2[C@H]3CC[C@H](C3)[C@@H]2C(=O)N1C[C@@H]1CCCC[C@H]1CN1CCN(c2nsc3ccccc23)CC1 [Lurasidone, lurasidone] | >30 mg/kg, p.o
O=C1CCc2ccc(OCCCCN3CCN(c4cccc(Cl)c4Cl)CC3)cc2N1 [Aripiprazole, aripiprazole] | 10 mg/kg, p.o

tested on: methamphetamine-induced hyperponesis; experiment: not given; conditions: rats; reflects anti-psychotic activity; cited from earlier work

SMILES | dose to inhibit 50% of methamphetamine-induced hyperponesis (ED50)
OCCOCCN1CCN(C2=Nc3ccccc3Sc3ccccc32)CC1 [Quetiapine, quetiapine] | about 100 mg/kg, p.o.
